ChEMBL document CHEMBL3612057, “Discovery of indolizines containing triazine moiety as new leads for the development of antitumoral agents targeting mitotic events” (2015)
Active and inactive are the calls of the source. The rule behind the calls is not given here.

Key:
[1] = tested on: Malme-3M; experiment: Cytotoxicity against human MALME-3M cells assessed as growth inhibition at 10 uM after 24 hrs by SRB assay; format: functional; conditions: read-out: GI
[2] = tested on: SK-MEL-5; experiment: Cytotoxicity against human SK-MEL-5 cells assessed as growth inhibition at 10 uM after 24 hrs by SRB assay; format: functional
[3] = tested on: UACC-62; experiment: Cytotoxicity against human UACC62 cells assessed as growth inhibition at 10 uM after 24 hrs by SRB assay; format: functional; conditions: UACC-62, 24 h, read-out: GI
[4] = tested on: PC-3; experiment: Cytotoxicity against human PC3 cells assessed as growth inhibition at 10 uM after 24 hrs by SRB assay; format: functional; conditions: PC-3, 24 h, read-out: GI
[5] = tested on: HOP-62; experiment: Cytotoxicity against human HOP62 cells assessed as growth inhibition at 10 uM after 24 hrs by SRB assay; format: functional; conditions: HOP-62, 24 h, read-out: GI
[6] = tested on: CAKI-1; experiment: Cytotoxicity against human CAKI-1 cells assessed as growth inhibition at 10 uM after 24 hrs by SRB assay; format: functional
[7] = tested on: HCT-116; experiment: Cytotoxicity against human HCT116 cells assessed as growth inhibition at 10 uM after 24 hrs by SRB assay; format: functional; conditions: HCT-116, 24 h, read-out: GI
[8] = Cytotoxicity against human Hs578T cells assessed as growth inhibition at 10 uM after 24 hrs by SRB assay; format: functional; conditions: Hs-578T, read-out: GI
[9] = tested on: NCI-H522; experiment: Cytotoxicity against human NCI-H522 cells assessed as growth inhibition at 10 uM after 24 hrs by SRB assay; format: functional; conditions: NCI-H522, 24 h, read-out: GI
[10] = tested on: SR; experiment: Cytotoxicity against human SR cells assessed as growth inhibition at 10 uM after 24 hrs by SRB assay; format: functional; conditions: read-out: GI
[11] = tested on: CCRF-CEM; experiment: Cytotoxicity against human CCRF-CEM cells assessed as growth inhibition at 10 uM after 24 hrs by SRB assay; format: functional; conditions: read-out: GI
[12] = tested on: U-251; experiment: Cytotoxicity against human U251 cells assessed as growth inhibition at 10 uM after 24 hrs by SRB assay; format: functional
[13] = tested on: UACC-257; experiment: Cytotoxicity against human UACC257 cells assessed as growth inhibition at 10 uM after 24 hrs by SRB assay; format: functional
[14] = species on record: Ovis aries; experiment: Inhibition of sheep tubulin polymerization at 100 uM by fluorescence assay
[15] = tested on: RXF 393; experiment: Cytotoxicity against human RXF393 cells assessed as growth inhibition at 10 uM after 24 hrs by SRB assay; format: functional; conditions: RXF 393, 24 h, read-out: GI
[16] = tested on: OVCAR-4; experiment: Cytotoxicity against human OVCAR4 cells assessed as growth inhibition at 10 uM after 24 hrs by SRB assay; format: functional
[17] = tested on: MDA-MB-435; experiment: Cytotoxicity against human MDA-MB-435 cells assessed as growth inhibition at 10 uM after 24 hrs by SRB assay; format: functional
[18] = tested on: SNB-75; experiment: Cytotoxicity against human SNB75 cells assessed as growth inhibition at 10 uM after 24 hrs by SRB assay; format: functional; conditions: SNB-75, 24 h, read-out: GI
[19] = tested on: SK-OV-3; experiment: Cytotoxicity against human SKOV3 cells assessed as growth inhibition at 10 uM after 24 hrs by SRB assay; format: functional; conditions: SK-OV-3, 24 h, read-out: GI
[20] = tested on: T47D; experiment: Cytotoxicity against human T47D cells assessed as growth inhibition at 10 uM after 24 hrs by SRB assay; format: functional
[21] = tested on: SF-295; experiment: Cytotoxicity against human SF295 cells assessed as growth inhibition at 10 uM after 24 hrs by SRB assay; format: functional; conditions: SF-295, 24 h, read-out: GI
[22] = tested on: MCF7; experiment: Cytotoxicity against human MCF7 cells assessed as growth inhibition at 10 uM after 24 hrs by SRB assay; format: functional; conditions: MCF7, 24 h, read-out: GI
[23] = tested on: SF-539; experiment: Cytotoxicity against human SF539 cells assessed as growth inhibition at 10 uM after 24 hrs by SRB assay; format: functional; conditions: SF-539, 24 h, read-out: GI
[24] = tested on: 786-0; experiment: Cytotoxicity against human 786-0 cells assessed as growth inhibition at 10 uM after 24 hrs by SRB assay; format: functional
[25] = tested on: OVCAR-3; experiment: Cytotoxicity against human OVCAR3 cells assessed as growth inhibition at 10 uM after 24 hrs by SRB assay; format: functional
[26] = tested on: NCI-H460; experiment: Cytotoxicity against human NCI-H460 cells assessed as growth inhibition at 10 uM after 24 hrs by SRB assay; format: functional
[27] = tested on: OVCAR-8; experiment: Cytotoxicity against human OVCAR8 cells assessed as growth inhibition at 10 uM after 24 hrs by SRB assay; format: functional; conditions: OVCAR-8, 24 h, read-out: GI
[28] = tested on: K562; experiment: Cytotoxicity against human K562 cells assessed as growth inhibition at 10 uM after 24 hrs by SRB assay; format: functional
[29] = tested on: A549; experiment: Cytotoxicity against human A549 cells assessed as growth inhibition at 10 uM after 24 hrs by SRB assay; format: functional; conditions: A549, 24 h, read-out: GI
[30] = tested on: TK-10; experiment: Cytotoxicity against human TK10 cells assessed as growth inhibition at 10 uM after 24 hrs by SRB assay; format: functional
[31] = tested on: RPMI-8226; experiment: Cytotoxicity against human RPMI8226 cells assessed as growth inhibition at 10 uM after 24 hrs by SRB assay; format: functional; conditions: RPMI-8226, 24 h, read-out: GI
[32] = tested on: NCI/ADR-RES; experiment: Cytotoxicity against human NCI/ADR-RES cells assessed as growth inhibition at 10 uM after 24 hrs by SRB assay; format: functional
[33] = tested on: HOP-92; experiment: Cytotoxicity against human HOP92 cells assessed as growth inhibition at 10 uM after 24 hrs by SRB assay; format: functional
[34] = tested on: ACHN; experiment: Cytotoxicity against human ACHN cells assessed as growth inhibition at 10 uM after 24 hrs by SRB assay; format: functional; conditions: read-out: GI
[35] = tested on: NCI-H226; experiment: Cytotoxicity against human NCI-H226 cells assessed as growth inhibition at 10 uM after 24 hrs by SRB assay; format: functional
[36] = tested on: MDA-MB-231; experiment: Cytotoxicity against human MDA-MB-231 cells assessed as growth inhibition at 10 uM after 24 hrs by SRB assay; format: functional; conditions: MDA-MB-231, 24 h, read-out: GI
[37] = tested on: SK-MEL-28; experiment: Cytotoxicity against human SK-MEL-28 cells assessed as growth inhibition at 10 uM after 24 hrs by SRB assay; format: functional; conditions: SK-MEL-28, 24 h, read-out: GI
[38] = tested on: HL-60(TB); experiment: Cytotoxicity against human HL-60(TB) cells assessed as growth inhibition at 10 uM after 24 hrs by SRB assay; format: functional

## COc1nc(OC)nc(-c2cc(C(=O)c3ccc(Cl)cc3)n3ccccc23)n1
[1]
  inhibition of growth at 10 µM: 30%
[2]
  growth inhibition (GI): inactive
[3]
  inhibition of growth at 10 µM: 14%
[4]
  inhibition of growth at 10 µM: 19%
[5]
  inhibition of growth at 10 µM: 77%
[6]
  growth inhibition (GI): inactive
[7]
  inhibition of growth at 10 µM: 26%
[8]
  inhibition of growth at 10 µM: 46%
[9]
  inhibition of growth at 10 µM: 47%
[10]
  inhibition of growth at 10 µM: 26%
[11]
  inhibition of growth at 10 µM: 11%
[12]; U-251, 24 h, read-out: GI
  inhibition of growth at 10 µM: 44%
[13]
  growth inhibition (GI): inactive
[14]
  inhibition: inactive
[15]
  inhibition of growth at 10 µM: 37%
[16]
  growth inhibition (GI): inactive
[17]
  growth inhibition (GI): inactive
[18]
  inhibition of growth at 10 µM: -3%
[19]
  inhibition of growth at 10 µM: 55%
[20]; read-out: GI
  inhibition of growth at 10 µM: 19%
[21]
  inhibition of growth at 10 µM: 33%
[22]
  inhibition of growth at 10 µM: 19%
[23]
  inhibition of growth at 10 µM: 39%
[24]; 786-0, 24 h, read-out: GI
  inhibition of growth at 10 µM: 31%
[25]
  growth inhibition (GI): inactive
[26]; NCI-H460, 24 h, read-out: GI
  inhibition of growth at 10 µM: 20%
[27]
  inhibition of growth at 10 µM: 24%
[28]
  growth inhibition (GI): inactive
[29]
  inhibition of growth at 10 µM: 21%
[30]; TK-10, 24 h, read-out: GI
  inhibition of growth at 10 µM: 12%
[31]
  inhibition of growth at 10 µM: 13%
[32]
  growth inhibition (GI): inactive
[33]
  growth inhibition (GI): inactive
[34]
  inhibition of growth at 10 µM: 56%
[35]
  growth inhibition (GI): inactive
[36]
  inhibition of growth at 10 µM: 43%
[37]
  inhibition of growth at 10 µM: 12%
[38]
  growth inhibition (GI): inactive

## COc1nc(OC)nc(-c2cc(C(=O)c3cc(OC)c(OC)c(OC)c3)n3c(C)cccc23)n1
[1]
  inhibition of growth at 10 µM: 37%
[2]; SK-MEL-5, 24 h, read-out: GI
  inhibition of growth at 10 µM: 41%
[3]
  inhibition of growth at 10 µM: 30%
[4]
  inhibition of growth at 10 µM: 19%
[5]
  inhibition of growth at 10 µM: 34%
[6]; CAKI-1, 24 h, read-out: GI
  inhibition of growth at 10 µM: 11%
[7]
  inhibition of growth at 10 µM: 15%
[8]
  inhibition of growth at 10 µM: 17%
[9]
  inhibition of growth at 10 µM: 56%
[10]
  inhibition of growth at 10 µM: 67%
[11]
  inhibition of growth at 10 µM: 10%
[12]
  growth inhibition (GI): inactive
[13]
  growth inhibition (GI): inactive
[14]
  inhibition: inactive
[15]
  inhibition of growth at 10 µM: 31%
[16]
  growth inhibition (GI): inactive
[17]; MDA-MB-435, 24 h, read-out: GI
  inhibition of growth at 10 µM: 86%
[18]
  inhibition of growth at 10 µM: 67%
[19]
  inhibition of growth at 10 µM: 18%
[20]
  growth inhibition (GI): inactive
[21]
  inhibition of growth at 10 µM: 15%
[22]
  inhibition of growth at 10 µM: 55%
[23]
  inhibition of growth at 10 µM: 14%
[24]
  growth inhibition (GI): inactive
[25]; OVCAR-3, 24 h, read-out: GI
  inhibition of growth at 10 µM: 19%
[26]
  growth inhibition (GI): inactive
[27]
  inhibition of growth at 10 µM: 12%
[28]; K562, 24 h, read-out: GI
  inhibition of growth at 10 µM: 45%
[29]
  inhibition of growth at 10 µM: 17%
[30]
  growth inhibition (GI): inactive
[31]
  inhibition of growth at 10 µM: 10%
[32]; read-out: GI
  inhibition of growth at 10 µM: 15%
[33]
  growth inhibition (GI): inactive
[34]
  inhibition of growth at 10 µM: 30%
[35]
  growth inhibition (GI): inactive
[36]
  inhibition of growth at 10 µM: 17%
[37]
  inhibition of growth at 10 µM: 14%
[38]; HL-60, 24 h, read-out: GI
  inhibition of growth at 10 µM: 33%
